Measured values from ChEMBL document CHEMBL1126529, “A diazine heterocycle replaces a six-membered hydrogen-bonded array in the active site of scytalone dehydratase” (Bioorg Med Chem Lett, 1993).

Experiments:
Scytalone dehydratase [1] = molecular target: T1, Scytalone dehydratase (Magnaporthe oryzae (strain 70-15 / FGSC 8958) (Rice blast fungus)(Pyricularia oryzae), UniProt P56221); assay: The inhibitory activity (Ki) of the deprotonated compound was measured against scytalone dehydratase at pH 9.8; set-up: species or system Pyricularia grisea
T1 sequence (P56221 whole entry): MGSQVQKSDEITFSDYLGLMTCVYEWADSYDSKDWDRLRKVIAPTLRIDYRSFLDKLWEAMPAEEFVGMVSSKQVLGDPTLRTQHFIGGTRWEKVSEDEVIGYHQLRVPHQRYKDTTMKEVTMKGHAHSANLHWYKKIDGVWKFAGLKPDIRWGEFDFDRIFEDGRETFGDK

Scytalone dehydratase [2] = molecular target: T1, Scytalone dehydratase; assay: The inhibitory activity (Ki) of the protonated compound was measured against scytalone dehydratase at pH 7.0; set-up: species or system Pyricularia grisea

Compound	Ki (Scytalone dehydratase [1]) [nM]	Ki (Scytalone dehydratase [2]) [µM]
c1ccc(CCCNc2nccc3ccccc23)cc1	2300	6.7
O=C(NCCCc1ccccc1)c1ccccc1O	230	0.0073
c1ccc(CCCNc2ccnc3ccccc23)cc1	45000	88
c1ccc(CCCNc2ncnc3ccccc23)cc1	19	1.8
